Assay [1] concerns mouse dermal fibroblasts (mDFs). Put plainly: Cell viability assay of NS and SEN mouse dermal fibroblasts treated with CRYAB and HMOX1 inhibitors. The class given is cell-based. As to conditions: 250 nM Doxo-induced senescence; after 72 h of treatment; 25HC at five or 10 μM. The method, then: The average value of DMSO was set at 1. (B and D) Effects of CRYAB and HMOX1 inhibitors on DMSO-treated NS or Doxo-treated SEN cells; (B) mDFs, (D) IMR-90s. Cells were treated with the inhibitors at the indicated concentrations. Cell viability was measured after 72 h. (C) IMR-90 qRT-PCR. For qPCR: mean +/- SE, n =4, ∗p< 0.05, ∗∗p< 0.01, ∗∗∗p<0.001, ∗∗∗∗p<0.0001 by Dunnett’s multiple comparisons test vs DMSO. For cell viability assays: mean +/- SE, n =3, ∗∗p< 0.01, ∗∗∗p<0.001, ∗∗∗∗p<0.0001 vs 0 mM by student’s t test.
For skin sample collection, mice were euthanized, hair removed from dorsal skin and the area cleaned with alcohol. A small 1 cm x 1 cm region of skin was removed, and subcutaneous fat removed by scalpel. Skin was digested in 2–3 ml of 0.25% trypsin at 37 °C for 1 h. Hair and epidermis were further removed, and the dermis was minced into 2–3 mm pieces. Digestion of the sample in 5 ml of 1 mg/ml collagenase (Sigma, Cat#C5138) in HBSS (with Ca^++ and Mg^++) (Gibco, cat#24020117) was carried out at 37 °C on a shaker for 1 h. Collagenase digestion was stopped by addition of 10 ml 10% FBS DMEM. Filtration of the homogenate through a 70-micron mesh was performed to remove undigested tissue. Differential centrifugation and washing were performed at 1200 rpm for 5 min, and the pellet was resuspended in 10% FBS DMEM then seeded in a six-well plate. Media were changed at 5 days after seeding and then every 3 days.
All experiments were performed in incubators at 37 °C, 3% O2 and 5% CO2. Senescence was induced by treatment with either Doxo (250 nM for 24 h) ([Demaria et al., 2017]) or X-irradiation (10 Gy) ([Limbad et al., 2020]). For cell culture studies using 25HC, it was used at the indicated concentrations in the media.
Cell viability was assessed using a cell counting kit-8 from Dojindo Molecular Technologies, Inc (Cat CK04-20). Cells were incubated with culture media + 10% kit cell viability reagent, 150 μL/well in 96-well plates for 2 h. The supernatant was transferred to a new 96-well plate and absorbance read at 450 nm as recommended in the product datasheet.

The test system of the next assay is 15-d-PGJ2. In words: 15-d-PGJ2 ELISA in urine of Doxo-treated mice given 25HC. Type of assay: in vivo, mouse. As to conditions: urine collected after the first treatment with 25HC 50 mg/kg i.p. (24 h per Figure 8, 12 hr per methods). The method, then: Figure 8 25HC induces senolysis in vivo in Doxo-treated mice (A) Timeline of 25HC treatment in Doxo-treated mice. Mice were given 4 mg/kg Doxo or PBS for 5 daily injections[A1], then injected with 25HC or vehicle for 7 consecutive days. (B) Mass of gastrocnemius muscles. Muscle weight was normalized to body weight. (C) Cdkn2a and Cryab mRNA levels in gastrocnemius (Gastroc) and soleus (Sol) muscles. RNA was collected 28–30 d after the first treatment with Doxo. mRNA levels were quantified by qRT-PCR, and normalized to actin mRNA levels. The average value of PBS-vehicle was set at 1. (D) 15-d-PGJ2 analysis in urine. […]
Male C57BL/6J mice (3–4 months old) were purchased from the Jackson Laboratory. […] Senescence markers p16^INK4a, p21^Cip1 and CRYAB expression was analyzed on gastrocnemius (Gastroc), soleus (So), tibialis anterior (TA), visceral fat (VF), kidney (Ki), liver (Li), lung (Lu), heart (He), and skin (Sk) samples by qRT-PCR.
Urine was collected at 12 or 24 h after the first treatment with 25HC or vehicle and diluted 10-fold with assay buffer. The amount of 15-d-PGJ2 was measured using a 15-deoxy-Δ^12,14-PGJ2 ELISA kit according to manufactures’ protocol (Enzo Life Sciences).
For orientation: In an ELISA, binding on a coated surface is turned into a signal by an enzyme label.

The test system of assay [2] is Cdkn1a and Cryab mRNA in gastrocnemius and soleus muscles. Put plainly: qRT-PCR of senescence markers and Cryab in muscles of Doxo-treated mice given 25HC. The class given is in vivo, mouse. As to conditions: Doxo-treated male mice, 25HC 50 mg/kg i.p. for 7 consecutive days. The method, then: Figure 8 25HC induces senolysis in vivo in Doxo-treated mice (A) Timeline of 25HC treatment in Doxo-treated mice. Mice were given 4 mg/kg Doxo or PBS for 5 daily injections[A1], then injected with 25HC or vehicle for 7 consecutive days. (B) Mass of gastrocnemius muscles. Muscle weight was normalized to body weight. (C) Cdkn2a and Cryab mRNA levels in gastrocnemius (Gastroc) and soleus (Sol) muscles. RNA was collected 28–30 d after the first treatment with Doxo. mRNA levels were quantified by qRT-PCR, and normalized to actin mRNA levels. The average value of PBS-vehicle was set at 1. (D) 15-d-PGJ2 analysis in urine. Urine was collected at 24 h after the first treatment with 25HC or HbCD. p values versus PBS-Veh or Doxo-Veh are obtained using Tukey's multiple comparisons test. ∗p < 0.05, ∗∗p < 0.01, p < 0.001, and ∗∗∗∗p < 0.0001.
Male C57BL/6J mice (3–4 months old) were purchased from the Jackson Laboratory. We performed five i.p. injections with 4 mg/kg of Doxo (Tocris Bioscience, Product# 2252) for each injection over 10 days (Figure 6A). Therefore, we injected a total of 20 mg/kg of Doxo/mouse over 10 days. We used EFT-PBS (EMD Millipore, Product# TMS-012-A) as a control. To test effects of 25HC (Tocris Bioscience, Product# 5741) on Doxo-treated mice, we prepared three experimental groups (n=15 for each group): 1) PBS+HβCD vehicle (22.5%), 2) Doxo (20 mg/kg)+vehicle (22.5%), 3) Doxo (20 mg/kg)+25HC (50 mg/kg) (Figure 6A); 25HC was dissolved in 22.5% 2-hydroxypropyl-beta-cyclodextrin (HβCD) (Tocris Bioscience, Product 0708). On the Day 5 after the last Doxo/PBS injections, the mice were treated with either 25HC (50 mg/kg) or vehicle by i.p. injections for 7 consecutive days (Figure 6A). 12 hr after the first 25HC or vehicle treatments, urine was collected (Figure 6A) from each group to test for the senolysis marker 15-d-PGJ2. […] Senescence markers p16^INK4a, p21^Cip1 and CRYAB expression was analyzed on gastrocnemius (Gastroc), soleus (So), tibialis anterior (TA), visceral fat (VF), kidney (Ki), liver (Li), lung (Lu), heart (He), and skin (Sk) samples by qRT-PCR. […]
For orientation: In qPCR the cycle at which signal appears reflects the starting amount.

Consider `C[C@H](CCCC(C)(C)O)[C@H]1CC[C@H]2[C@@H]3CC=C4C[C@@H](O)CC[C@]4(C)[C@H]3CC[C@]12C` [25HC, 25-hydroxycholesterol], for which the “senolysis in mDF cells” value in assay [1] is “induced significant senolysis”. Besides, the “15-d-PGJ2 levels in urine” value in the assay on 15-d-PGJ2 is reported as “increased significantly”. The “Cryab mRNA levels in muscle” value in assay [2] is “reduced”. In addition, the “Cdkn1a mRNA in gastrocnemius and soleus” value in assay [2] (versus Doxo + vehicle) was “significantly decreased”.

Values taken from publication PMC8851282, “Senolysis induced by 25-hydroxycholesterol targets CRYAB in multiple cell types” (iScience, 2022).
